Patent publication US8545876B1, “Modified drugs for use in liposomal nanoparticles” (The University of British Columbia, priority 2008, dated 2013)
Like-named read-outs stand apart in the source and are kept apart here.

Experiments:
[1] = Stability in mouse plasma; format: in vitro ADME; conditions: 24 hour incubation in mouse plasma, 37° C.
Procedure: (§1) The chemical stability of the docetaxel derivatives was determined in aqueous solutions at different pH values and temperatures, and in biological media (mouse plasma). Aliquots of the docetaxel derivatives in acetonitrile were mixed with buffered citrate/HEPES (10 mM/10 mM) solutions at pH 4.0 and 7.5, or in mouse plasma in 1 mL glass HPLC sample vials sealed with Teflon-lined caps (final volume 0.25 ml, final docetaxel derivative concentration 50 µg/ml). Drug stability was determined 1, 4 and 24 hrs after incubation at 37° C. by UPLC-UV. At the indicated time points, a 3-fold excess of methanol/0.1% TFA was added to the sample. Citrate/HEPES buffered samples were analyzed by UHPLC as described above. For plasma samples, proteins precipitated by the addition of methanol/0.1% TFA pelleted by centrifugation at 14,000×g and supernatants were analyzed for the drug derivatives. Heparanized mouse plasma was diluted to 50% with 100 mM sodium-phosphate buffer to keep the pH constant throughout the experiment.
(§2) To be suitable for formulation in LN, derivatives must be stable at pH 4 (the pH present inside the LN carrier). In addition, prodrug derivatives should readily form the active drug under physiological conditions (e.g., at pH 7.4 and/or in the presence of endogenous enzymes) once released from the LN. […] TD1-3 and TD7 were selected for loading into LN and testing of such LN for drug release in vitro.

[2] = Chemical (hydrolytic) stability in buffered aqueous solutions; format: physicochemical
Procedure: as §1, §2

[3] = Single dose tolerability (MTD) study; format: in vivo, SCID/Rag2-M mice; conditions: for MTD at 14 days: SCID/Rag2-M, mouse, in vivo, iv, single dose i.v.
Procedure: Tolerability studies were aimed at establishing the maximum tolerated dose (MTD) and the dose range for use in efficacy studies (efficacy studies were based on a single i.v. injection). […] The studies were based on administration of a single dose and relied on 3 mice/group and a dose escalation strategy based on three dose levels for the derivative and Taxotere and five dose levels for the LN formulations (DSPC/Chol 55:45 mol % at a prodrug/lipid weight ratio of 0.2 mg/mg). All formulations were injected i.v. via the lateral tail vein in a volume of 200 μl/20 g mouse.
Mice were monitored daily for signs of toxicity over a period of 14 days following drug administration. Tolerability was assessed by changes in body weight as well as behavioral parameters. […] Body weights of individual mice were measured every second day over the course of the study. If weight loss was not a good predictor of tolerability, the dose where no animals needed to be terminated due to toxicity was used.

[4] = test system: ovarian cancer cell line ES-2; test: In vitro cytotoxicity, Alamar Blue assay; format: cell-based; conditions: Homo sapiens; ES-2, 72-h drug exposure
Procedure: (§3) Anticancer activity was evaluated against a panel of 3 human cancer cell lines, including the ovarian cancer cell line ES-2, the prostate cancer cell line PC3 and the breast cancer cell line MDA435/LCC6 (BC Cancer Research Centre, Vancouver, BC) (Fields and Lancaster, Am. Biotechnol. Lab., 11:48-50 (1993); Nakayama et al., J. Immunol. Methods, 204:205-208 (1997)). Cytotoxicity was determined using the Alamar Blue assay after a 72-h drug exposure period. […] The plates were returned to the incubator for 4 h; sample fluorescence was determined at λex=530 nm and λem=590 nm. Viability was calculated according to: Cell viability (%)=(Fplus drug−Fbackground)/(Fminus drug−Fbackground)*100, where Fplus drug is the fluorescence reading in the presence of drug, Fminus drug the cell control in the absence of drug and Fbackground the background fluorescence (media alone).

[5] = test system: prostate cancer cell line PC3; test: In vitro cytotoxicity, Alamar Blue assay; format: cell-based; conditions: Homo sapiens; PC-3, 72-h drug exposure
Procedure: as §3

[6] = test system: breast cancer cell line MDA435/LCC6; test: In vitro cytotoxicity, Alamar Blue assay; format: cell-based; conditions: Homo sapiens; MDA-MB-435/LCC6, 72-h drug exposure
Procedure: as §3

[7] = mouse, in vivo, iv, 20 mg/kg
Description: The pharmacokinetics (PK) of LN-encapsulated docetaxel derivatives were compared to the PK of Taxotere™, the commercial docetaxel formulation, and derivatives formulated in the same manner as Taxotere™. Taxotere™ and similarly formulated derivatives were formulated as described in the prescribing information for Taxotere™ (Sanofi-Aventis, U.S.) using ethanol/polysorbate 80/physiological saline solution to dissolve the drug. The docetaxel derivative was encapsulated in DSPC/chol, DPPC/Chol and DMPC/Chol LN (55:45 mol %) at a drug-to-lipid ratio of 0.2 wt/wt using the ammonium sulfate loading technique. The lipid components contained trace amounts (0.15 μCi/mg lipid) of the lipid marker [^3H]CHE, allowing monitoring of the elimination of both the prodrug and the LN carrier from circulation.
The PK and in vivo release studies were based on 4 time points (1, 4, 8 and 16 hrs) and 4 mice per time point. […] The methanolic solutions were centrifuged for 30 min at 15,000×g at 4° C. to pellet the proteins and the supernatant was analyzed for docetaxel and drug derivatives by UHPLC. For LN formulations, 25-50 μl of plasma was added to scintillation fluid (PicoFluor 40, Perkin Elmer) and analyzed for lipid levels ([^3H]-CHE radioactivity) by scintillation counting.

[8] = Chemical (hydrolytic) stability in buffered aqueous solutions; format: physicochemical; conditions: 24 hour incubation in pH 7.4 buffer, 37° C.
A431 tumors = test: In vivo kinetics and anticancer activity of vincristine formulations; parameters: species or system SCID mice; conditions: 2 mg/kg i.v.
Procedure: FIG. 9. In vivo kinetics and anticancer activity of free vincristine (VCR) (2 mg/kg) and vincristine (2 mg/kg) encapsulated in 100 nm egg sphingomyelin/cholesterol LN injected i.v. in SCID mice bearing A431 tumors. (8A) Concentration profile of free VCR (□) and LN formulated VCR (●) in blood plasma over time. […] (8B) Release of free VCR (●) from LN formulations (% retention) over time. […] (8C) Tumor concentration ([…]) of VCR over time after administration of free VCR (□) and LN formulated VCR (●). […] (8D) Anticancer activity of free VCR (1) and LN formulated VCR (●) relative to saline control (▪). […] Nano-liposomal formulations increase the amount of drug reaching sites of tumor growth and prolongs the duration of exposure to therapeutically active levels of drug, resulting in increased antitumor activity.

| Compound | Prodrug levels (% remaining), Plasma [1] [%] | Prodrug levels (% remaining), pH 4 ([2]; 24 hour incubation in pH 4 buffer, 37° C.) [%] | half-life at 50 g/ml ([2]; citrate/HEPES (10 mM/10 mM) buffered aqueous solution, pH 4, read-out: hydrolysis half-life (converted)) [days] | MTD at 14 days ([3]; docetaxel equivalents, read-out: MTD) [mg/kg] | MTD at 14 days ([3]; mg/kg prodrug, read-out: MTD expressed as prodrug) [mg/kg] | Clin. Observations ([3]; docetaxel equivalent dose 20 mg/kg, 20 mg/kg) | Clin. Observations ([3]; docetaxel equivalent dose 20 mg/kg, listed as Derivative, 20 mg/kg) | DRD (drug-related death) ([3]; dose 16 mg/kg) | DRD (drug-related death) ([3]; dose 20 mg/kg) | Clin. Observations ([3]; dose 24 mg/kg) | DRD (drug-related death) ([3]; dose 24 mg/kg) | IC50 [4] [nM] | IC50 [5] [nM] | IC50 [6] [nM] | time by which plasma concentrations were below detectable levels ([7]; Swiss Webster) [h] | plasma circulation half-lives [7] | Prodrug levels (% remaining), pH 7.4 [8] [%] | pKa (physchem) | concentration profile in blood plasma over time (A431 tumors) |
| --- | --- | --- | --- | --- | --- | --- | --- | --- | --- | --- | --- | --- | --- | --- | --- | --- | --- | --- | --- |
| CC(=O)O[C@@]12CO[C@@H]1C[C@H](O)[C@@]1(C)C(=O)[C@H](O)C3=C(C)[C@@H](OC(=O)[C@H](OC(=O)CCCN4CCN(C)CC4)[C@@H](NC(=O)OC(C)(C)C)c4ccccc4)C[C@@](O)([C@@H](OC(=O)c4ccccc4)C12)C3(C)C (stereo partly shown) [TD1, 2′-O-(N-methyl-piperazinylbutanoic acid ester) derivative of docetaxel] | 12 | 94 | ~49 | 16 | 20 | acute toxicity (lethality) | Acute toxicity | 0/3 | 1/1 | Acute toxicity | 3/3 | 0.1 | 0.5 | < 0.1 | ≤ 2 | minutes | 23 | 7.7 |  |
| CC[C@]1(O)C[C@H]2CN(CCc3c([nH]c4ccccc34)[C@@](C(=O)OC)(c3cc4c(cc3OC)N(C=O)[C@H]3[C@@](O)(C(=O)OC)[C@H](OC(C)=O)[C@]5(CC)C=CCN6CC[C@]43[C@@H]65)C2)C1 [free VCR, vincristine] |  |  |  |  |  |  |  |  |  |  |  |  |  |  |  |  |  |  | rapidly removed from circulation |
